Here are results for one compound from patent publication US20150031760A1, “PHARMACEUTICAL COMPOSITION FOR PREVENTING OR TREATING NERVOUS SYSTEM DISORDERS COMPRISING SULFURETIN OR PHARMACEUTICALLY ACCEPTABLE SALT THEREOF” (Research and Business Foundation SUNGKYUNKWAN UNIVERSITY, priority 2010, published 2015).

The viability is a read-out of living cells in per cent, often relative to untreated cells.

Assay [1] relates to SH-SY5Y cells. The assay is described as follows: LDH assay, amyloid beta25-35-induced cytotoxicity. It is filed as cell-based, human. As to conditions: pretreatment with sulfuretin at 2.5, 5, 10 and 20 μM; 20 μM amyloid beta25-35 for 24 h (p<0.001).
The subject of assay [2] is SH-SY5Y cells. The assay can be described thus: MTT (cell viability) test, induced cell death in SH-SY5Y cells. As to conditions: Homo sapiens, SH-SY5Y; for viability at 0.1 µg/mL: sulfuretin 0.1 μg/ml; for viability at 0.5 µg/mL: sulfuretin 0.5 μg/ml; for viability at 1 µg/mL: sulfuretin 1 μg/ml; for viability at 5 µg/mL: sulfuretin 5 μg/ml. As for the experimental part:
(§1) The incubator was maintained at a temperature of 37° C., and a mixed gas of 95% air and 5% CO2 was continuously supplied thereto to provide suitable conditions for cell culture. The cells were cultured in a 6-well plate or a 96-well plate at each of densities of 1×10^6 and 2×10^4 cells/well 24 hours before the experiment. […] Sulfuretin was used in ethanol and used at a final concentration of 0.1% or less.
To measure cell viability, an MTT reduction assay was used. An MTT solution was added to each well of the 96-well plate (in which the cells have been cultured) to a final concentration of 0.5 mg/ml. The plate was incubated in an incubator for 2 hours, and the medium and the MIT solution were removed, after which DMSO was added thereto and stirred. When DMSO was completely dissolved, the UV absorbance at 540 nm was measured using a microplate reader (Molecular device, USA).
The measured absorbance was substituted into the following equation to calculate cell viability:
Cell viability (%)=[(O.D. of control−O.D. of test group)/O.D. of control]×100

The test system of another assay is caspase-3. The assay is described as follows: Western blot, caspase-3 expression. It is filed as cell-based, human. The conditions noted are these: SH-SY5Y cells. As for the experimental part:
as §1
In order to identify the effect of sulfuretin on the expression of proteins related to dementia, Alzheimer's disease, Parkinson's disease and strokes, a Western blot test was carried out.
After 24 hours, the supernatant of each well was collected and centrifuged at 400 g for 3 minutes, and the cells were washed with cold PBS and lysed with 100 μl of T-PER lysis buffer (Thermo, USA) for 30 minutes. The lysates were centrifuged at 10000 g at 4° C. for 15 minutes, and the supernatants were stored at […] until use as test samples. Proteins were quantitatively analyzed using a BCA assay kit (Thermo, USA) and separated within 8.5-12% SDS gel and then transferred to PVDF membranes. To examine the expression of the proteins, the development of fluorescence was analyzed by enhanced chemiluminescence (ECL). Specifically, the membrane was blocked with 5% skimmed non-fat milk for 1 hour and labeled with the primary antibodies, PARP, caspase-3, phospho-p38, phospho-JNK and β-actin at 4° C. overnight. Then, the membrane was washed three times with Tris-tween buffered saline (TTBS), and then labeled with horseradish peroxidase (HRP)-conjugated anti-rabbit and anti-mouse secondary antibodies at room temperature for 1 hour. Then, the membrane was washed five times with TTBS for 10 minutes. The washed film was developed by ECL using x-ray films, and concentrations were quantitatively analyzed using quantitative analysis program (Fujifilm, Japan).

The next assay relates to β-CTF. The assay is described as follows: Western blot, β-CTF level. It is filed as cell-based, human. As to conditions: Swedish APP mutant SH-SY5Y cells; sulfuretin 2.5, 5, 10 and 20 μM for 24 h; dose-dependent (p<0.001). The method, then: For the experiments shown in FIGS. 11 to 13, SH-SY5Y and stable swedish APP mutant SH-SY5Y cells were grown in DMEM supplemented with 10% heat-inactivated FBS and 0.1% penicillin/streptomycin at 37° C. in a humidified atmosphere of 5% CO2 and 95% air. Cells were fed every three days and sub-cultured once they reached 80-90% confluency in […] cell culture dishes. Amyloid beta25-35 was prepared as a 20 mM stock immediately before use and diluted in PBS to the indicated final concentration. Prior to use, amyloid beta25-35 was dissolved in sterilized distilled water and was aggregated at 37° C. for five days. The test compounds were dissolved in DMSO and the stock solutions were added directly to the culture media to a final concentration of 0.1% (v/v) DMSO.
SH-SY5Y and stable swedish APP mutant SH-SY5Y cells (1×10^6 cells/well in 6-well plates) were incubated at 37° C. with or without 20 μM amyloid beta 25-35 for 6 or 24 h, with or without sulfuretin pretreatment, and then washed and harvested with ice-cold PBS and centrifuged at 400×g for 3 minutes. […] The protein concentration was determined using a protein assay kit (Thermo Scientific). […] Protein bands were quantified by densitometric analysis using Image Gauge 4.0 software (Fujifilm, Stamford, Conn., USA). […]

Setting [3] is: read-out: cell viability, 6-hydroxydopamine-induced cell death.
Setting [4] is: read-out: cell viability, beta-amyloid-induced cell death.
The mark [5] stands for this setting: read-out: cell viability, hydrogen peroxide-induced cell death.

Where two headings read alike, the source gives them in different places.

In the case of `O=C1/C(=C/c2ccc(O)c(O)c2)Oc2cc(O)ccc21` [sulfuretin], the “LDH activity (LDH release)” value in the assay on SH-SY5Y cells [1] was “significantly decreased”. Also, the results for the viability at 0.1 µg/mL in the assay with SH-SY5Y cells [2] (setting [3]), in the assay on SH-SY5Y cells [2] (setting [4]) and in the assay with SH-SY5Y cells [2] (setting [5]) were not below 87%, not below 58% and not below 74%, respectively. Also, the viability at 0.5 µg/mL is not below 97% in the assay on SH-SY5Y cells [2] (setting [3]), not below 64% in the assay on SH-SY5Y cells [2] (setting [4]) and not below 97% in the assay on SH-SY5Y cells [2] (setting [5]). The values for the viability at 1 µg/mL with SH-SY5Y cells [2] (setting [3]), with SH-SY5Y cells [2] (setting [4]) and in the assay on SH-SY5Y cells [2] (setting [5]) were not below 112%, not below 80% and not below 119%, respectively. Besides, the viability at 5 µg/mL with SH-SY5Y cells [2] (setting [3]) is not below 140%; in the assay with SH-SY5Y cells [2] (setting [4]), not below 97%; in the assay with SH-SY5Y cells [2] (setting [5]), not below 103%. The caspase-3 expression with caspase-3 (hydrogen peroxide + sulfuretin 0.1 μg/ml) is listed as not below 24%; with caspase-3 (hydrogen peroxide + sulfuretin 0.5 μg/ml), not below 51%; in the assay with caspase-3 (hydrogen peroxide + sulfuretin 1 μg/ml) it was not below 127%. Besides, in the assay with β-CTF, the β-CTF level entry is listed as “significantly inhibited”.
